pIC50: −log10 of the molar value.
Key:
[1] = test system: SK-MEL-2; experiment: Growth inhibition of human SK-MEL-2 cells assessed as cell growth at 0.1 uM incubated for 48 hrs by sulforhodamine B assay relative to control; format: functional; details: SK-MEL-2, 48 h, read-out: Activity
[2] = test system: SNB-19; experiment: Growth inhibition of human SNB19 cells assessed as cell growth at 0.01 uM incubated for 48 hrs by sulforhodamine B assay relative to control; format: functional; details: SNB-19, 48 h, read-out: Activity
[3] = test system: HCT-116; experiment: Growth inhibition of human HCT116 cells assessed as cell growth at 100 uM incubated for 48 hrs by sulforhodamine B assay relative to control; format: functional; details: HCT-116, 48 h, read-out: Activity
[4] = test system: Hs-578T; experiment: Growth inhibition of human Hs578T cells assessed as cell growth at 1 uM incubated for 48 hrs by sulforhodamine B assay relative to control; format: functional; details: read-out: Activity
[5] = test system: A498; experiment: Growth inhibition of human A498 cells incubated for 48 hrs by sulforhodamine B assay; format: functional, cell-based; details: A498, 48 h
[6] = test system: LOX IMVI; experiment: Growth inhibition of human LOXIMVI cells incubated for 48 hrs by sulforhodamine B assay; format: functional
[7] = test system: NCI-H226; experiment: Growth inhibition of human NCI-H226 cells assessed as cell growth at 1 uM incubated for 48 hrs by sulforhodamine B assay relative to control; format: functional; details: NCI-H226, 48 h, read-out: Activity
[8] = test system: SW-620; experiment: Growth inhibition of human SW620 cells assessed as cell growth at 0.01 uM incubated for 48 hrs by sulforhodamine B assay relative to control; format: functional; details: SW-620, 48 h, read-out: Activity
[9] = test system: OVCAR-8; experiment: Growth inhibition of human OVCAR8 cells assessed as cell growth at 0.1 uM incubated for 48 hrs by sulforhodamine B assay relative to control; format: functional; details: OVCAR-8, 48 h, read-out: Activity
[10] = test system: SR; experiment: Growth inhibition of human SR cells assessed as cell growth at 0.01 uM incubated for 48 hrs by sulforhodamine B assay relative to control; format: functional; details: read-out: Activity
[11] = test system: OVCAR-3; experiment: Growth inhibition of human OVCAR3 cells assessed as cell growth at 100 uM incubated for 48 hrs by sulforhodamine B assay relative to control; format: functional; details: OVCAR-3, 48 h, read-out: Activity
[12] = test system: TK-10; experiment: Growth inhibition of human TK10 cells assessed as cell growth at 10 uM incubated for 48 hrs by sulforhodamine B assay relative to control; format: functional; details: TK-10, 48 h, read-out: Activity
[13] = test system: M14; experiment: Growth inhibition of human M14 cells assessed as cell growth at 0.1 uM incubated for 48 hrs by sulforhodamine B assay relative to control; format: functional; details: M14, 48 h, read-out: Activity
[14] = test system: U-251; experiment: Growth inhibition of human U251 cells assessed as cell growth at 0.01 uM incubated for 48 hrs by sulforhodamine B assay relative to control; format: functional; details: U-251, 48 h, read-out: Activity
[15] = test system: 786-0; experiment: Growth inhibition of human 786-0 cells incubated for 48 hrs by sulforhodamine B assay; format: functional, cell-based; details: 786-0, 48 h
[16] = test system: T47D; experiment: Growth inhibition of human T47D cells assessed as cell growth at 0.01 uM incubated for 48 hrs by sulforhodamine B assay relative to control; format: functional; details: read-out: Activity
[17] = test system: HT-29; experiment: Growth inhibition of human HT-29 cells incubated for 48 hrs by sulforhodamine B assay; format: functional, cell-based; details: HT-29, 48 h
[18] = test system: HCT-15; experiment: Growth inhibition of human HCT15 cells assessed as cell growth at 100 uM incubated for 48 hrs by sulforhodamine B assay relative to control; format: functional; details: HCT-15, 48 h, read-out: Activity
[19] = test system: HCC 2998; experiment: Growth inhibition of human HCC2998 cells assessed as cell growth at 1 uM incubated for 48 hrs by sulforhodamine B assay relative to control; format: functional; details: HCC 2998, 48 h, read-out: Activity
[20] = test system: MDA-MB-435; experiment: Growth inhibition of human MDA-MB-435 cells incubated for 48 hrs by sulforhodamine B assay; format: functional, cell-based; details: MDA-MB-435, 48 h
[21] = test system: OVCAR-5; experiment: Growth inhibition of human OVCAR5 cells incubated for 48 hrs by sulforhodamine B assay; format: functional, cell-based; details: OVCAR-5, 48 h
[22] = test system: OVCAR-4; experiment: Growth inhibition of human OVCAR4 cells incubated for 48 hrs by sulforhodamine B assay; format: functional, cell-based; details: OVCAR-4, 48 h
[23] = test system: MDA-MB-435; experiment: Growth inhibition of human MDA-MB-435 cells assessed as cell growth at 1 uM incubated for 48 hrs by sulforhodamine B assay relative to control; format: functional; details: MDA-MB-435, 48 h, read-out: Activity
[24] = test system: K562; experiment: Growth inhibition of human K562 cells assessed as cell growth at 0.1 uM incubated for 48 hrs by sulforhodamine B assay relative to control; format: functional; details: K562, 48 h, read-out: Activity
[25] = test system: A549; experiment: Growth inhibition of human A549/ATCC cells assessed as cell growth at 1 uM incubated for 48 hrs by sulforhodamine B assay relative to control; format: functional; details: A549, 48 h, read-out: Activity
[26] = test system: OVCAR-4; experiment: Growth inhibition of human OVCAR4 cells assessed as cell growth at 0.01 uM incubated for 48 hrs by sulforhodamine B assay relative to control; format: functional; details: OVCAR-4, 48 h, read-out: Activity
[27] = test system: MDA-MB-468; experiment: Growth inhibition of human MDA-MB-468 cells incubated for 48 hrs by sulforhodamine B assay; format: functional, cell-based; details: MDA-MB-468, 48 h
[28] = test system: MOLT-4; experiment: Growth inhibition of human MOLT4 cells assessed as cell growth at 1 uM incubated for 48 hrs by sulforhodamine B assay relative to control; format: functional; details: MOLT-4, 48 h, read-out: Activity
[29] = read-out: LC50 (the source's name)
[30] = read-out: pLC50 (the source's name) (converted)

COc1cc(Cl)cc(-c2nn(-c3cccc(NC(=O)Nc4cccc(C(F)(F)F)c4)c3)cc2-c2ccncc2)c1
growth at 0.1 µM [1]: 55% | growth at 0.01 µM [2]: 98% | growth at 100 µM [3]: -81% | growth at 1 µM [4]: 90% | GI50 ([5]; read-out: GI50): 2.25 µM | CC50 [5, 29]: > 100 µM | TGI ([5]; read-out: TGI): 25.5 µM | GI50 ([5]; read-out: pGI50 (converted)): 2.24 µM | CC50 [5, 30]: > 100 µM | TGI ([5]; read-out: pTGI (converted)): 25.7 µM | GI50 ([6]; read-out: GI50): 1.51 µM | CC50 [6, 29]: 82.8 µM | TGI ([6]; read-out: TGI): 70.4 µM | GI50 ([6]; read-out: pGI50 (converted)): 1.82 µM | CC50 [6, 30]: 83.2 µM | TGI ([6]; read-out: pTGI (converted)): 7.08 µM | growth at 1 µM [7]: 77% | growth at 0.01 µM [8]: 103% | growth at 0.1 µM [9]: 99% | growth at 0.01 µM [10]: 89% | growth at 100 µM [11]: -41% | growth at 10 µM [12]: 23.4% | growth at 0.1 µM [13]: 93% | growth at 0.01 µM [14]: 95% | GI50 ([15]; read-out: GI50): 1.94 µM | CC50 [15, 29]: 67.1 µM | TGI ([15]; read-out: TGI): 57.5 µM | GI50 ([15]; read-out: pGI50 (converted)): 1.95 µM | CC50 [15, 30]: 67.6 µM | TGI ([15]; read-out: pTGI (converted)): 6.76 µM | growth at 0.01 µM [16]: 97% | GI50 ([17]; read-out: GI50): 1.51 µM | CC50 [17, 29]: 25.1 µM | TGI ([17]; read-out: TGI): 52.4 µM | GI50 ([17]; read-out: pGI50 (converted)): 1.51 µM | CC50 [17, 30]: 26.3 µM | TGI ([17]; read-out: pTGI (converted)): 6.31 µM | growth at 100 µM [18]: -72% | growth at 1 µM [19]: 98% | GI50 ([20]; read-out: GI50): 1.74 µM | LC50 ([20]; read-out: LC50): 83.7 µM | TGI ([20]; read-out: TGI): 35.2 µM | GI50 ([20]; read-out: pGI50 (converted)): 1.74 µM | LC50 ([20]; read-out: pLC50 (converted)): 8.32 µM | TGI ([20]; read-out: pTGI (converted)): 3.8 µM | GI50 ([21]; read-out: GI50): 3.06 µM | CC50 [21, 29]: > 100 µM | TGI ([21]; read-out: TGI): 30.1 µM | GI50 ([21]; read-out: pGI50 (converted)): 3.09 µM | CC50 [21, 30]: > 100 µM | TGI ([21]; read-out: pTGI (converted)): 30.2 µM | GI50 ([22]; read-out: GI50): 2.54 µM | CC50 [22, 29]: > 100 µM | TGI ([22]; read-out: TGI): 38.8 µM | GI50 ([22]; read-out: pGI50 (converted)): 2.51 µM | CC50 [22, 30]: > 100 µM | TGI ([22]; read-out: pTGI (converted)): 38.9 µM | growth at 1 µM [23]: 85% | growth at 0.1 µM [24]: 94% | growth at 1 µM [25]: 43% | growth at 0.01 µM [26]: 93% | pIC50 [27]: 5.98 | GI50 ([27]; read-out: GI50): 1.05 µM | CC50 [27, 29]: > 100 µM | TGI ([27]; read-out: TGI): 49.9 µM | GI50 ([27]; read-out: pGI50 (converted)): 1.05 µM | CC50 [27, 30]: > 100 µM | TGI ([27]; read-out: pTGI (converted)): 5.01 µM | growth at 1 µM [28]: 55%

Source: ChEMBL document CHEMBL4308841, “Synthesis, in vitro antiproliferative activity, and kinase inhibitory effects of pyrazole-containing diarylureas and diarylamides” (Eur J Med Chem, 2018)
